From publication PMC7215599, “Synthesis, Antitumor Evaluation, Molecular Modeling and Quantitative Structure–Activity Relationship (QSAR) of Novel 2-[(4-Amino-6-N-substituted-1,3,5-triazin-2-yl)methylthio]-4-chloro-5-methyl-N-(1H-benzo[d]imidazol-2(3H)-ylidene)Benzenesulfonamides” (International Journal of Molecular Sciences, 2020)

Key:
[1] = test system: HCT-116 (colon cancer) cell line; assay: MTT cell viability assay, HCT-116; assay type: cell-based, human; settings: MTT, 72 h, 1-100 µM, mean ± SD
Protocol: (§1) Compounds 6–49 were evaluated in vitro for their effects on the viability of the three human cancer cell lines: HCT-116 (colon cancer), MCF-7 (breast cancer) and HeLa (cervical cancer) as well as the non-cancerous keratinocyte cell line (HaCaT). The concentration required for 50% inhibition of cell viability IC50 was calculated and compared with the reference drug cisplatin, the results are shown in Table 1.
(§2) Cell lines: colon cancer (HCT-116), breast cancer (MCF-7), cervical cancer (HeLa), the human keratinocyte cell line (HaCaT); NT—not tested; IC50 was measured at concentrations 1, 10, 25, 50, and 100 µM. IC50 values are expressed as the mean ± SD of at last three independent experiments.
(§3) All chemicals, if not stated otherwise, were obtained from Sigma–Aldrich (St. Louis, MO, USA). The HCT-116 cell lines was purchased from ATCC (ATCC-No: CCL-247), while the MCF-7, HeLa and HaCaT cell lines were purchased from Cell Lines Services (Eppelheim, Germany). Cells were cultured in Dulbecco’s modified Eagle’s medium (DMEM) supplemented with 10% fetal bovine serum, 2 mM glutamine, 100 units/mL penicillin, and 100 µg/mL streptomycin. Cultures were maintained in a humidified atmosphere with 5% carbon dioxide at 37 °C in an incubator (Heraceus, HeraCell).
(§4) Cell viability was examined using the MTT (3-(4,5-dimethylthiazol-2-yl)-2,5-diphenyltetrazolium bromide) assay. Cells were seeded in 96-well plates at a density of 5 × 10^3 cells/well and treated for 72 h with the tested compounds in the concentration range of 1–100 µM (1, 10, 25, 50 and 100 µM). Then, MTT (0.5 mg/mL) was added to the medium and cells were further incubated for 2 h at 37 °C. In the next stage, cells were lysed with DMSO and the absorbance of the formazan solution was measured at 550 nm with a plate reader (1420 multilabel counter, Victor, Jügesheim, Germany). The experiment was performed in triplicate. Values are expressed as the mean ± SD of at least three independent experiments. Cisplatin was used as a positive control.

[2] = test system: HaCaT (non-cancerous keratinocyte cell line); assay: MTT cell viability assay, HaCaT; assay type: cell-based; settings: Homo sapiens, 72 h, 1-100 µM, mean ± SD, non-cancerous cells
Protocol: as §1, §2, §3, §4

[3] = test system: HeLa (cervical cancer) cell line; assay: MTT cell viability assay, HeLa; assay type: cell-based, human; settings: 72 h, MTT, 1-100 µM, mean ± SD
Protocol: as §1, §2, §3, §4

[4] = test system: MCF-7 (breast cancer) cell line; assay: MTT cell viability assay, MCF-7; assay type: cell-based, human; settings: MTT, 72 h, 1-100 µM, mean ± SD
Protocol: as §1, §2, §3, §4

SMILES | IC50 ([1]; Homo sapiens, HCT-116, 72 h) | IC50 [2] | IC50 ([3]; Homo sapiens, HeLa) | IC50 ([4]; Homo sapiens, MCF7, 72 h) | IC50 [3] | IC50 [4] | IC50 [1]
Cc1cc(S(=O)(=O)N=c2[nH]c3ccccc3[nH]2)c(SCc2nc(N)nc(N3CCN(C(c4ccccc4)c4ccccc4)CC3)n2)cc1Cl [Compound 31] | 18 ± 1 µM | 54 ± 2 µM | 39 ± 1 µM | 46 ± 2 µM |  |  | 
Cc1cc(S(=O)(=O)N=c2[nH]c3ccccc3[nH]2)c(SCc2nc(N)nc(N(C)c3ccc(Cl)cc3)n2)cc1Cl [Compound 17, 2-[{4-Amino-6-[(4-chlorophenyl)(methyl)amino]-1,3,5-triazin-2-yl}methylthio]-N-(1H-benzo[d]imidazol-2(3H)-ylidene)-4-chloro-5-methylbenzenesulfonamide] | 29 ± 1 µM | 43 ± 2 µM | 30 ± 1 µM | 31 ± 1 µM |  |  | 
Cc1cc(S(=O)(=O)N=c2[nH]c3ccc(F)cc3[nH]2)c(SCc2nc(N)nc(N3CCN(c4ccccc4)CC3)n2)cc1Cl [Compound 37, 2-[{[4-Amino-6-(4-phenylpiperazin-1-yl)-1,3,5-triazin-2-yl]methyl}thio]-4-chloro-N-(5-fluoro-1H-benzo[d]imidazol-2(3H)-ylidene)-5-methylbenzenesulfonamide] | 17 ± 1 µM | 39 ± 1 µM | 20 ± 1 µM | 27 ± 2 µM |  |  | 
Cc1cc(S(=O)(=O)N=c2[nH]c3ccc(Cl)cc3[nH]2)c(SCc2nc(N)nc(N3CCN(c4ccccc4)CC3)n2)cc1Cl [Compound 45, 2-[{4-Amino-6-[4-(4-phenyl)piperazin-1-yl]-1,3,5-triazin-2-yl}metylthio]-4-chloro-N-(5-chloro-1H-benzo[d]imidazol-2(3H)-ylidene)-5-methylbenzenesulfonamide] | 15 ± 1 µM | 39 ± 1 µM | 28 ± 1 µM | 26 ± 1 µM |  |  | 
Cc1cc(S(=O)(=O)N=c2[nH]c3ccccc3[nH]2)c(SCc2nc(N)nc(N3CCN(c4ccc(Cl)c(Cl)c4)CC3)n2)cc1Cl [Compound 25, 2-[{4-Amino-6-[4-(3,4-dichlorophenyl)piperazin-1-yl]-1,3,5-triazin-2-yl}metylthio]-N-(1H-benzo[d]imidazol-2(3H)-ylidene)-4-chloro-5-methylbenzenesulfonamide] | 16 ± 1 µM | 52 ± 2 µM | 28 ± 1 µM | 46 ± 2 µM |  |  | 
Cc1cc(S(=O)(=O)N=c2[nH]c3ccccc3[nH]2)c(SCc2nc(N)nc(NCc3ccccc3)n2)cc1Cl [Compound 15, 2-{[4-Amino-6-(benzylamino)-1,3,5-triazin-2-yl]metylthio}-N-(1H-benzo[d]imidazol-2(3H)-ylidene)-4-chloro-5-methylbenzenesulfonamide] | 22 ± 1 µM |  | > 100 µM | 27 ± 1 µM | 92 ± 2 µM |  | 
COc1ccc(N2CCN(c3nc(N)nc(CSc4cc(Cl)c(C)cc4S(=O)(=O)N=c4[nH]c5ccccc5[nH]4)n3)CC2)cc1 [Compound 27, 2-[{4-Amino-6-[4-(4-methoxyphenyl)piperazin-1-yl]-1,3,5-triazin-2-yl}metylthio]-N-(1H-benzo[d]imidazol-2(3H)-ylidene)-4-chloro-5-methylbenzenesulfonamide] | 35 ± 1 µM | 98 ± 2 µM | > 100 µM | > 100 µM | 74 ± 1 µM | 110 ± 3 µM | 
Cc1cc(S(=O)(=O)N=c2[nH]c3ccccc3[nH]2)c(SCc2nc(N)nc(N3CCN(c4ccc([N+](=O)[O-])cc4)CC3)n2)cc1Cl [Compound 29, 2-[{4-Amino-6-[4-(4-nitrophenyl)piperazin-1-yl]-1,3,5-triazin-2-yl}metylthio]-N-(1H-benzo[d]imidazol-2(3H)-ylidene)-4-chloro-5-methylbenzenesulfonamide] | > 100 µM |  | > 100 µM | > 100 µM | 56 ± 2 µM | 134 ± 9 µM | 195 ± 4 µM
N.N.[Cl][Pt][Cl] [cisplatin, reference compound] |  |  |  |  | 3.8 ± 0.2 µM | 3 ± 0.1 µM | 2.2 ± 0.1 µM
